Values joined by “and” are separate entries in the source; they are usually repeats but may differ in a detail not shown here. Equal values may be shown once. Each block holds one compound with its values, some of them ahead of it.
Key:
[1] = system: Caco-2 cell line; assay: bi-directional permeability in Caco-2 cell line; type: in vitro ADME, human
Experimental: Metabolic stability was assessed in mouse and rat liver microsomes. Microsomes are subcellular fractions of hepatocytes and contain CYP450s, the predominant enzymes involved in first-pass metabolism.[66] […] A plasma protein binding assay was performed to assess the extent of compound binding to plasma proteins. This is key as only unbound compound is free to distribute and exert a pharmacological effect. […] To assess the potential for this sub-class of SSAs to be developed as drugs for oral administration, Caco-2 permeability assays were also performed, as a cellular model indicative of human intestinal permeability. […]
Sample analysis was by electrospray ionisation. […]
Bi-directional Permeability in Caco-2 Cell Line:
The bi-directional permeability in Caco-2 cell lines was determined by seeding cells onto an HTS Transwell plate. Cells were cultivated for 14-18 days in a cell culture incubator at 37 °C, 5 % CO2, 95 % relative humidity. Cell culture medium was replaced every other day. To assess monolayer integrity the transepithelial electrical resistance (TEER) across the monolayer was measured using Millicell Epithelial volt-ohm meter prior to assay and Lucifer yellow (LY) fluorescence measurement post-assay.
Test and control compounds were prepared in DMSO and diluted in Hank’s Balanced Saline […]
Solution (HBSS, pH 7.4) to a final concentration of 5 or 10 µM. Compound was added to the […]
donor compartment of the transwell plate for both apical to basolateral (A>B) and basolateral […]
to apical (B>A) measurements, with blank HBSS being added to the receiver compartment.
The transwell plate was then incubated at 37 °C, 5 % CO2 for 2 hours.

[2] = quantitative (Q) 1H NMR spectroscopy, proportion of SSA becoming NMR silent (higher-order aggregates); type: physicochemical
Experimental: To confirm the presence of higher order self-associative structures quantitative (Q) ^1H NMR spectroscopy studies were undertaken at 5.6 mM in D2O 5% EtOH. Here the ^1H NMR resonances attributed to the EtOH are used as an internal standard.
Table S1 – Overview of results of the quantitative (Q) 1H NMR studies for 1, 3, 5, 7 and 9
5.0 % EtOH . Values given in % represent the observed proportion of the SSA that has become
Table S2 – Overview of results of the quantitative (Q) 1H NMR studies for 2, 4, 6, 8 and 10
5.0 % EtOH. Values given in % represent the observed proportion of anion and cation that has

[3] = tensiometry: critical aggregate concentration (CAC) and surface tension; type: physicochemical
Experimental: As the (Q) ^1H NMR spectroscopy experiments conducted at 5.6 mM in a D2O 5.0% EtOH solution confirmed the presence of higher-order self-associated structures with solid-like properties, concentration dependent surface tension measurements, obtained through tensiometry, were used to calculate critical aggregate concentration (CAC). Here the CAC is defined as the point at which an increase in SSA concentration no longer decreases surface tension but instead results in the formation of higher-order self-associated structures.

[4] = dynamic light scattering (DLS) of SSA aggregates; type: physicochemical; settings: 5.6 mM, H2O 5.0% EtOH, 298 K; listed as 10
Experimental: Dynamic light scattering (DLS) and zeta potential measurements in H2O 5.0% EtOH were used to determine the hydrodynamic diameter (dH) and stability of the higher-order SSA aggregates detected by (Q) ^1H NMR spectroscopy at 5.6 mM, Table 1. […] However, we are unable to confidently report a dH for 1 due to the instability of this system, which is supported by a zeta potential value of −26 mV, obtained for this SSA under the same experimental conditions. […] Due to the instability of these systems in the absence of solvent, attempts to further characterise these systems through SEM or AFM are not possible.[48]

[5] = system: K. pneumoniae M6; assay: inhibition of bacterial growth, OD600 after 20 h; type: cell-based, Klebsiella pneumoniae; settings: SSA 5.0 mM, 2.5% ethanol, negative = enhanced growth
Experimental: (§1) With the self-associative properties of 1–10 established, the antimicrobial activity of these SSAs were determined against a panel of clinically relevant, high-priority pathogens including: P. aeruginosa PAO1; Klebsiella pneumonia (K. pneumoniae) M6; E. coli NCTC 12923; Acinetobacter baumannii (A. baumannii) ATCC 17978; S. aureus ATCC 9144; Enterococcus faecalis (E. faecalis) NCTC 775; and Enterococcus faecium (E. faecium) NCTC 12204. […] However, it should be noted that the SSA stock solution was prepared in a H2O 5% EtOH solution, to ensure that the SSA aggregates formed were in line with those characterised within the scope of the SSA self-association studies.
(§2) Section 3: Biological methods
(§3) These methods were taken directly from UK Health and Security Office (UKHSA) standard […]
(§4) Preparation of Luria Broth media (LB): Yeast extract (5.0 g), tryptone (10.0 g) and sodium chloride (10.0 g) were dissolved in dH₂O (1.0 L) then divided into bottles and autoclaved.
(§5) Preparation of Luria Broth (LB) agar plates: Agar (6.0 g) was added to LB (400 mL) and autoclaved. Once cool, the LB agar was poured into sterile petri dishes under sterile conditions and allowed to set. LB plates were stored at 4 °C until use.
(§6) Preparation of bacterial plates: Sterile LB agar plates were streaked using streaked using the desired bacteria i) Pseudomonas aeruginosa (P.aeruginosa) PAO1, ii) Klebsiella pneumoniae (K. pneumoniae) M6 iii) E. coli NCTC 12923 and iv) Acinetobacter baumannii (A. baumannii) ATCC 17978 and Gram-positive i) Staphylococcus aureus (S. aureus) ATCC 9144 ii) Enterococcus faecalis (E. faecalis) NCTC 775 and iii) Enterococcus faecium (E. faecium ) NCTC 12204, then incubated at 37 °C overnight.
(§7) Preparation of Inoculum: An initial culture was made up by inoculating LB media (5 mL) with a single colony of bacteria under sterile conditions and incubated at 37 °C with shaking overnight. The following day, overnight bacterial cultures were subcultured into fresh LB medium to a starting OD600 of 0.01.
(§8) Preparation of 96 well microplate for MIC50: The 1:100 cell suspension (150 µL) was dispensed into individual wells under sterile conditions. SSAs (30 µL) were added to the wells to equal a total volume of 180 µL in the wells. Six repeats of each concentration for each SSA were created each plate. The plates were sealed using parafilm, then incubated at 37 °C in a microplate reader for 20 hours. OD600 endpoint data was used to generate growth curves. […]

[6] = system: E. coli NCTC 12923; assay: inhibition of bacterial growth, OD600 after 20 h; type: cell-based, Escherichia coli; settings: SSA 5.0 mM, 2.5% ethanol, negative = enhanced growth
Experimental: as §1, §2, §3, §4, §5, §6, §7, §8

[7] = system: A. baumannii ATCC 17978; assay: inhibition of bacterial growth, OD600 after 20 h; type: cell-based, Acinetobacter baumannii; settings: SSA 5.0 mM, 2.5% ethanol, negative = enhanced growth, listed as 10
Experimental: as §1, §2, §3, §4, §5, §6, §7, §8

[8] = system: S. aureus ATCC 9144; assay: inhibition of bacterial growth, OD600 after 20 h; type: cell-based, Staphylococcus aureus; settings: SSA 5.0 mM, 2.5% ethanol, negative = enhanced growth, listed as 10
Experimental: as §1, §2, §3, §4, §5, §6, §7, §8

[9] = system: E. faecalis NCTC 775; assay: inhibition of bacterial growth, OD600 after 20 h; type: cell-based, Enterococcus faecalis; settings: SSA 5.0 mM, 2.5% ethanol, negative = enhanced growth
Experimental: as §1, §2, §3, §4, §5, §6, §7, §8

[10] = system: E. faecium NCTC 12204; assay: inhibition of bacterial growth, OD600 after 20 h; type: cell-based, Enterococcus faecium; settings: SSA 5.0 mM, 2.5% ethanol, negative = enhanced growth
Experimental: as §1, §2, §3, §4, §5, §6, §7, §8

[11] = Caco-2, 5 or 10 µM, HBSS pH 7.4, 2 hours
[12] = 5.6 mM, D2O 5.0% EtOH, 298 K, listed as 10

Structure (SMILES): C[C@H]1O[C@@H](O[C@H]2[C@@H](O)C[C@H](O[C@H]3[C@@H](O)C[C@H](O[C@H]4CC[C@@]5(C)[C@H](CC[C@@H]6[C@@H]5C[C@@H](O)[C@]5(C)[C@@H](C7=CC(=O)OC7)CC[C@]65O)C4)O[C@@H]3C)O[C@@H]2C)C[C@H](O)[C@@H]1O [Digoxin, reference compound]
Efflux Ratio ([1]; Caco-2): 45.59 | Recovery (%) AP-BL ([1]; Caco-2): 95.92% | Recovery (%) BL-AP ([1]; Caco-2): 99.20% | Papp (A-B) [1, 11]: 0.42 10-6, cm/s | Papp (B-A) [1, 11]: 18.74 10-6, cm/s

(Q) 1H NMR spectroscopy, proportion NMR silent, acid or anion [2, 12]: 38% | (Q) 1H NMR spectroscopy, proportion NMR silent, cation [2, 12]: 43.6% and 44% | (Q) 1H NMR, proportion NMR silent, SSA acid or anion ([2]; ~112 mM, DMSO-d6 1.0% DCM): 0% | (Q) 1H NMR, proportion NMR silent, cation ([2]; ~112 mM, DMSO-d6 1.0% DCM): 0% | CAC ([3]; H2O 5.0% EtOH, 298 K): 26.00 mM and 26 mM | ST at CAC ([3]; H2O 5.0% EtOH, 298 K): 41 mN m^−1 | Surface tension at CAC ([3]; H2O/5.0 % EtOH, listed as 10): 41.37 mN/m | Polydispersity index (%) [4]: 26.0 (± 0.5) % | dH (DLS intensity distribution peak 1 maxima) [4]: 307 nm
Structure (SMILES): O=C(O)CC[C@H](NC(=O)Nc1ccc(Br)cc1)C(=O)O [SSA 10]
inhibition at 5000 µM ([5]; Klebsiella pneumoniae, M6, 20 h, read-out: Percentage inhibition of bacterial growth, M6 (K. pneumoniae)): 32% | Percentage inhibition of bacterial growth, M6 (K. pneumoniae) ([5]; listed as 10): 32% | inhibition at 5000 µM ([6]; Escherichia coli, NCTC12923, 20 h, read-out: Percentage inhibition of bacterial growth, NCTC 12923 (E. coli)): 67.9% | Percentage inhibition of bacterial growth, NCTC 12923 (E. coli) ([6]; listed as 10): 68% | Percentage inhibition of bacterial growth, ATCC 17978 (A. baumannii) [7]: 49.97% and 50% | Percentage inhibition of bacterial growth, ATCC 9144 (S. aureus) [8]: 17.46% and 17% | inhibition at 5000 µM ([9]; Enterococcus faecalis, NCTC775, 20 h, read-out: Percentage inhibition of bacterial growth, NCTC 775 (E. faecalis)): 23.1% | Percentage inhibition of bacterial growth, NCTC 775 (E. faecalis) ([9]; listed as 10): 23% | inhibition at 5000 µM ([10]; Enterococcus faecium, NCTC12204, 20 h, read-out: Percentage inhibition of bacterial growth, NCTC 12204 (E. faecium)): 34.1% | Percentage inhibition of bacterial growth, NCTC 12204 (E. faecium) ([10]; listed as 10): 34%
